Assay results published in publication PMC10515640, “Structure-Based Optimization of Covalent, Small-Molecule Stabilizers of the 14-3-3σ/ERα Protein–Protein Interaction from Nonselective Fragments” (Journal of the American Chemical Society, 2023).

Legend:
14-3-3σ/C-RAF [1] = target: T1, 14-3-3σ/C-RAF (Homo sapiens, UniProt P31947); assay: Mass spectrometry dose response, compound binding to 14-3-3σ in the presence of C-RAF phosphopeptide; details: 100 nM compound, 100 nM 14-3-3σ, C-RAF peptide 18 µM
T1 construct: The 14-3-3 σ isoform (full-length for mass spectrometry and fluorescence anisotropy assays, ΔC for crystallography); made in house; host or cells: E. coli Rosetta 2(DE3)pLysS, pPROEX HTb vector
T1 sequence (P31947 1-248): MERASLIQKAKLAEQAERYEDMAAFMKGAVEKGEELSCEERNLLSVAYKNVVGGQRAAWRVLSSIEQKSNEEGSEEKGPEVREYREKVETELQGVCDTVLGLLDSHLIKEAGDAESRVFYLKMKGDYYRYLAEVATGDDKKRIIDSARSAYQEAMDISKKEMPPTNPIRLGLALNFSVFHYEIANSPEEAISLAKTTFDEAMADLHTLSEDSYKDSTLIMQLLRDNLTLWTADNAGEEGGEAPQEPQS
Source text: (§1) Two orthogonal assays were developed for screening. For the primary assay, mass spectrometry (MS) was used to monitor the formation of the covalent bond between the compound and the native cysteine (Cys38 on 14-3-3σ) (Figure 1D). The assay was first performed in the absence of peptide to determine binding to 14-3-3σ only (apo screening, D1) and then in the presence of both 14-3-3σ and the peptide as an indication of how much the peptide stabilized compound binding (D2). […] As a secondary assay, fluorescence anisotropy (FA) was used. In this case, compounds were titrated to mixtures of 14-3-3σ and FAM-labeled peptides. […] Thus, the two assays are highly complementary; the MS assay reports on compound binding and the FA assay reports on peptide binding. […]
(§2) Mass spectrometry dose response assays were performed on a Waters Acquity UPLC/ Xevo G2-XS Q-Tof mass spectrometer. A Waters UPLC Protein BEH-C4 Column (300 Å, 1.7 μm, 2.1 mm x 50 mm) was used to desalt the samples prior to application on the mass spectrometer. For 19-point MS dose responses, 50 mM compound stocks in DMSO were serially diluted in 3-fold increment in a master plate, then 1000 nl of the compounds were transferred in the assay plates. Master mixes containing 100 nM full-length wild type 14-3-3σ in the absence or presence of […]
(§3) Assay buffer was TRIS (10 mM, pH 8.0) and final volume per well was 50 μl, with final top concentration of compounds dose response series at 1 mM. The reaction mixtures were incubated for 1h at rt before subjected to MS. Four measurements (1h, 8h, 16h, 24h) were performed for time-course experiments. The injection volume for each sample was 6 μl. 24 μl of sample were needed for the time-course experiments, so the total volume in the assay plate was adjusted to 50 μl, to account for the dead volume in the injections. Data collection and automated processing followed a custom workflow, as previously described.1 z Plots were created using GraphPad Prism with the log(agonist) vs. response (variable slope, four parameters) fitting model. […]

14-3-3σ/ERα [2] = target: T2, 14-3-3σ/ERα (Homo sapiens, UniProt P03372+P31947); assay: Fluorescence anisotropy compound titration, FAM-labeled ERα peptide; type: binding; details: 10 nM ERα-FAM labeled peptide, 1 µM 14-3-3σ, overnight incubation (24 h); read-out: EC50 value ERα (FA compound titration)
T2 construct: The 14-3-3 σ isoform (full-length for mass spectrometry and fluorescence anisotropy assays, ΔC for crystallography); made in house; host or cells: E. coli Rosetta 2(DE3)pLysS, pPROEX HTb vector
Source text: as §1
(§4) diluted in buffer (10 mM HEPES, pH 7.5, 150 mM NaCl, 0.1% Tween20, 1 mg/mL Bovine Serum Albumin (BSA; Sigma-Aldrich). Final DMSO in the assay was always 1%. Dilution series of 14-3-3 proteins or compounds were made in […]
(§5) Compound titrations were made by titrating the compound in a 2-fold dilution series (starting at 500 or 1000 µM) to a mix of fluorescein-labeled peptide (10 nM) and 14-3-3σ (concentration at approximately the EC20 to EC30 value of the protein-peptide complex; 1 µM for ERα and 5 µM for C-RAF). Using the ~EC25 value makes the assay sensitive for measuring an increase in PPI formation. Fluorescence anisotropy measurements were performed directly and after overnight incubation at room temperature. […]
(§6) Wells containing only FAM-peptide were used to set as G-factor at 35 mP. Data reported are at endpoint. EC50 and apparent Kd values were obtained from fitting the data with a four-parameter logistic model (4PL) in GraphPad Prism 7 for Windows. Data was obtained and averaged based on either three (compound titrations) or two (protein titrations) independent experiments.

14-3-3σ/C-RAF [3] = target: T1, 14-3-3σ/C-RAF; assay: Fluorescence anisotropy compound titration, FAM-labeled C-RAF peptide; type: binding; details: 10 nM C-RAF-FAM labeled peptide, 5 µM 14-3-3σ, overnight incubation; read-out: EC50 value C-RAF (FA compound titration)
Source text: as §1, §4, §5, §6

14-3-3σ/ERα [4] = target: T2, 14-3-3σ/ERα; assay: Mass spectrometry dose response, compound binding to 14-3-3σ in the presence of ERα phosphopeptide; details: 100 nM compound, 100 nM 14-3-3σ, ERα-peptide 2 µM
Source text: as §1, §2, §3

14-3-3σ = target: T3, 14-3-3σ (Homo sapiens, UniProt P31947); assay: Mass spectrometry dose response, compound binding to 14-3-3σ in the absence of peptide (apo); details: 100 nM compound, 100 nM 14-3-3σ
T3 construct: The 14-3-3 σ isoform (full-length for mass spectrometry and fluorescence anisotropy assays, ΔC for crystallography); made in house; host or cells: E. coli Rosetta 2(DE3)pLysS, pPROEX HTb vector
T3 sequence (P31947 1-248): T1 sequence (P31947 1-248)
Source text: as §1, §2, §3

SMILES | Percentage (%) bound of compound to 14-3-3σ, CRAF 1h (14-3-3σ/C-RAF [1]) [%] | Percentage (%) bound of compound to 14-3-3σ, CRAF 8h (14-3-3σ/C-RAF [1]) [%] | Percentage (%) bound of compound to 14-3-3σ, CRAF 24h (14-3-3σ/C-RAF [1]; 24h) [%] | Percentage (%) bound of compound to 14-3-3σ, CRAF 24h (14-3-3σ/C-RAF [1]; head prints 24h) [%] | EC50 (14-3-3σ/ERα [2]) [µM] | EC50 (14-3-3σ/C-RAF [3]) [µM] | Percentage (%) bound of compound to 14-3-3σ, ERα 1h (14-3-3σ/ERα [4]) [%] | Percentage (%) bound of compound to 14-3-3σ, ERα 8h (14-3-3σ/ERα [4]) [%] | Percentage (%) bound of compound to 14-3-3σ, ERα 16h (14-3-3σ/ERα [4]) [%] | Percentage (%) bound of compound to 14-3-3σ, ERα 24h (14-3-3σ/ERα [4]) [%] | Percentage (%) bound of compound to 14-3-3σ, APO 1h (14-3-3σ) [%] | Percentage (%) bound of compound to 14-3-3σ, APO 8h (14-3-3σ) [%] | Percentage (%) bound of compound to 14-3-3σ, APO 16h (14-3-3σ) [%] | Percentage (%) bound of compound to 14-3-3σ, APO 24h (14-3-3σ) [%]
O=C(CCl)NCC1CC2(CCN(C(=O)C3(Nc4ccc(Cl)cc4)CCOCC3)CC2)C1 [compound 174] | 0.6 | 0.7 | 2.1 | 1.6 | 97 ± 9 | > 150 | 5.0 | 5.0 | 8.4 | 41.4 | 1.0 | 1.0 | 1.5 | 3.0
O=C(CCl)NCC1CCN(C(=O)C2(Oc3ccccc3)CCCC2)CC1 [compound 119] | 6.2 | 19.7 | 53.6 | 28.5 | 24 ± 2 | 18 ± 0.3 | 1.9 | 5.3 | 10.9 | 21.0 | 0 | 1.0 | 1.0 | 2.5
O=C(CCl)NCC1CCN(C(=O)C2(Nc3ccccc3)CCCC2)CC1 [compound 120] | 0 | 0 | 0 | 0 | > 150 | > 150 | 0 | 0 | 0 | 4.5 | 0 | 0 | 0 | 0
O=C(CCl)NCC1CCN(C(=O)C2(Nc3ccc(Cl)cc3)CCC(F)(F)CC2)CC1 [compound 125] | 4.9 | 7.6 | 23.2 | 12.4 | 12 ± 2 | > 150 | 13.8 | 30.0 | 64.6 | 87.5 | 0.4 | 1.1 | 2.1 | 6.2
CC1(C)CC(Nc2ccc(Cl)cc2)(C(=O)N2CCC(CNC(=O)CCl)CC2)CC(C)(C)O1 [compound 179] | 0 | 0 | 1.0 | 0 | 23 ± 2 | > 150 | 1.5 | 3.0 | 6.4 | 11.8 | 0 | 0 | 0.3 | 0.4
O=C(CCl)NCC1CCN(C(=O)C2(Nc3ccc(Cl)cc3)CC2)CC1 [compound 97] | 1.0 | 1.7 | 5.5 | 5.1 | 15 ± 1 | 101 ± 15 | 1.0 | 2.5 | 5.8 | 21.3 | 0.3 | 0.4 | 0.8 | 5.9
CC(C)(Oc1ccc(Cl)cc1)C(=O)N1CCC(CCCNC(=O)CCl)CC1 [compound 29] | 1.0 | 1.0 | 18.9 | 7.1 | 9 ± 0.4 | 142 ± 40 | 0.4 | 1.0 | 3.1 | 11.0 | 0 | 0 | 0 | 0
